Earlier results in US7517545B2, “Reduced-calorie fats containing behenic acid and process of making thereof” (Council of Scientific & Industrial Research, priority 1997, dated 2009).

Settings: feed study on rats

absorption of the structured triglycerides vs other oils: significantly lower | excretion into feces vs other oils: higher than other oils
Structure (SMILES): CCCCCCCCCCCCCCCCCCCCCCOC(COC(=O)CCCCC)COC(=O)CCCCC [2-behenyl-1,3-dicaproyl glycerol]
